# Reference: patent US20230020329A1, “Annelated 9-hydroxy-1,8-dioxo-1,3,4,8-tetrahydro-2H-pyrido[1,2-a]pyrazine-7-carboxamides as HIV integrase inhibitors, methods of preparation and application thereof” (priority 2019, published 2023)
# System: HIV-1 (IIIB strain)
# Assay: Anti-HIV cytoprotection assay (XTT), HIV-1 IIIB in CEM-SS cells
# Assay type: cell-based
# Conditions: Human immunodeficiency virus 1, IIIB, CEM-SS, CEM-SS cell line; read-out: Inhibitory activity (EC50) against HIV-1 (IIIB strain)
# Source text: a) Inhibitory Activity of the Lymphocytropic Virus Strain HIV-1 (IIIB) in the CEM-SS Cell Line.
# The evaluation was done by ImQuest BioSciences, Inc. (Frederick, Md., USA). CEM-SS cells [Foley G. E. et al. Continuous Culture of Human Lymphoblasts from Peripheral Blood of a Child with Acute Leukemia. Cancer 1965, 18, 522-529] obtained through the NIH AIDS Research and Reference Reagent Program (Manassas, Va., USA) were passaged in T-75 flasks prior to use cell culture medium consisting of RPMI1640 medium (Lonza; Walkersville, Md., USA) supplemented with 10% heat inactivated fetal bovine serum (Gibco; Grand Island, N.Y.), […] L-glutamine (Lonza), […] penicillin (Lonza) and […] streptomycin (Lonza) for antiviral analysis. The CEM-SS cells were kept in RPMI 140 medium supplemented with 10% heat inactivated bovine fetal serum, 2 mM glutamine, 100 U/ml penicillin, and 100 μg/ml streptomycin.
# A lymphocytropic HIV-1 IIIB strain [Popovic, M. et al. Detection, isolation, and continuous production of cytopathic retroviruses (HTLV-III) from patients with AIDS and pre-AIDS. Science. 1984, 224 (4648), 497-500] was chosen for a virus to be analyzed. The virus was obtained through the NIH AIDS Research and Reference Reagents Program and grown in CEM-SS cells to produce a stock virus pool. A pre-titrated aliquot of the virus was removed from the freezer (−80° C.) and allowed to slowly thaw to room temperature in a biological safety cabinet. The virus was diluted in a tissue culture medium so that the amount of virus added in 50 μl per well was sufficient to kill 85 to 95% of the cells 6 days after infection. HIV-1 IIIB was grown and titrated in CEM-SS cells. The inhibitory effect of […] was evaluated in CEM-SS cells as described earlier [Nara, P. L. at al. Simple, rapid, quantitative, syncytium-forming microassay for the detection of human immunodeficiency virus neutralizing antibody. AIDS Res. Hum. Retroviruses 1987, 3, 283-302.] in microtiter plate anti-HIV assays to quantitatively assess the ability of a compound to inhibit HIV-induced cell death. Quantification was carried out using 2,3-bis-(2-methoxy-4-nitro-5-[…])-(2H)-tetrazolium-5-carboxanilide (XTT) tetrazolium, which is metabolized to a stained formazan product through viable […] The compounds given in Table 1 were dissolved at 10 μM in DMSO and stored at −20° C.
# Test materials were evaluated using antiviral assays in triplicate in concentrations of 30 and 10 nM. The compounds shown in table 1 were dissolved at 10 μM in DMSO and stored at −20° C. […] Sixty nanomolar concentrations of each compound (2 times that of the test concentration in the well) were prepared by diluting 10 μM DMSO stock 1:100 in cell culture medium (10 μl of compound added to 990 μl of the medium) followed by 1:10 dilution (10 μl of the compound was added to 90 μl of the medium), then 6 μl was added to 994 μl of the medium; […] μl was added to a 96-well microtiter plate in triplicate to ensure efficacy and one colorimetric well. Twenty nanomolar concentrations of each compound (twice as much as the test concentration in the well) were prepared by diluting 10 μM DMSO with the original 1:100 in cell culture medium (10 μl of the compound added to 990 μl of the medium) followed by diluting […] (10 μl of the compound was added to 900 μl of the medium), then 20 μl was added to 980 μl of the medium; 100 μl was added to a 96-well microtiter plate in triplicate to ensure efficacy and one colorimetric well.
# Azidothymidine (AZT) was purchased from Sigma Aldrich (USA) and evaluated as a positive control compound in an antiviral assay using a six-concentration reaction curve on each assay plate.
# Test compounds were initially evaluated for HIV-1 IIIB strain in CEM-SS cells at test concentrations of 30 and 10 nM. […]
row,EC50 [nM],SMILES
1,2 to 10,"Cc1ccc(CNC(=O)c2cn3c(c(O)c2=O)C(=O)N2[C@@H](C)CO[C@@H]2C3)o1 [Compound 1.1.3, (3S,11aR)-6-hydroxy-3-methyl-N-[(5-methyl-2-furyl)methyl]-5,7-dioxo-2,3,5,7,11,11a-hexahydro[1,3]oxazolo[3,2-a]pyrido[1,2-d]pyrazine-8-carboxamide]"
2,~8,"Cc1n[nH]c(C)c1CNC(=O)c1cn2c(c(O)c1=O)C(=O)N1[C@@H](C)CO[C@@H]1C2 [Compound 1.1.4, (3S,11aR)-6-hydroxy-N-[(3,5-dimethyl-1H-pyrazol-4-yl)methyl]-3-methyl-5,7-dioxo-2,3,5,7,11,11a-hexahydro[1,3]oxazolo[3,2-a]pyrido[1,2-d]pyrazine-8-carboxamide]"
3,10 to 30,"Cc1nn(C)c(C)c1CNC(=O)c1cn2c(c(O)c1=O)C(=O)N1[C@@H](C)CO[C@@H]1C2 [Compound 1.1.5, (3S,11aR)-6-hydroxy-3-methyl-N-[(1,3,5-trimethyl-1H-pyrazol-4-yl)methyl]-5,7-dioxo-2,3,5,7,11,11a-hexahydro[1,3]oxazolo[3,2-a]pyrido[1,2-d]pyrazine-8-carboxamide]"
4,10 to 30,"CCn1nc(C)c(CNC(=O)c2cn3c(c(O)c2=O)C(=O)N2[C@@H](C)CO[C@@H]2C3)c1C [Compound 1.1.6, (3S,11aR)-6-hydroxy-N-[(1-ethyl-3,5-dimethyl-1H-pyrazol-4-yl)methyl]3-methyl-5,7-dioxo-2,3,5,7,11,11a-hexahydro[1,3]oxazolo[3,2-a]pyrido[1,2-d]pyrazine-8-carboxamide]"
5,2 to 10,"C[C@H]1CO[C@@H]2Cn3cc(C(=O)NCc4nccs4)c(=O)c(O)c3C(=O)N12 [Compound 1.1.8, (3S,11aR)-6-hydroxy-3-methyl-N-(1,3-thiazol-2-ylmethyl)-5,7-dioxo-2,3,5,7,11,11a-hexahydro[1,3]oxazolo[3,2-a]pyrido[1,2-d]pyrazine-8-carboxamide]"
6,> 30,"Cc1coc(CNC(=O)c2cn3c(c(O)c2=O)C(=O)N2[C@@H](C)CO[C@@H]2C3)n1 [Compound 1.1.9, (3S,11aR)-6-hydroxy-3-methyl-N-[(4-methyl-1,3-oxazol-2-yl)methyl]-5,7-dioxo-2,3,5,7,11,11a-hexahydro[1,3]oxazolo[3,2-a]pyrido[1,2-d]pyrazine-8-carboxamide]"
7,> 30,"Cc1nnsc1CNC(=O)c1cn2c(c(O)c1=O)C(=O)N1[C@@H](C)CO[C@@H]1C2 [Compound 1.1.11, (3S,11aR)-6-hydroxy-3-methyl-N-[(4-methyl-1,2,3-thiadiazol-5-yl)methyl]-5,7-dioxo-2,3,5,7,11,11a-hexahydro[1,3]oxazolo[3,2-a]pyrido[1,2-d]pyrazine-8-carboxamide]"
8,10 to 30,"Cc1nonc1CNC(=O)c1cn2c(c(O)c1=O)C(=O)N1[C@@H](C)CO[C@@H]1C2 [Compound 1.1.12, (3S,11aR)-6-hydroxy-3-methyl-N-[(4-methyl-1,2,5-oxadiazol-3-yl)methyl]-5,7-dioxo-2,3,5,7,11,11a-hexahydro[1,3]oxazolo[3,2-a]pyrido[1,2-d]pyrazine-8-carboxamide]"
9,~10,"C[C@H]1CO[C@@H]2Cn3cc(C(=O)NCc4nncn4C)c(=O)c(O)c3C(=O)N12 [Compound 1.1.14, (3S,11aR)-6-hydroxy-3-methyl-N-[(4-methyl-4H-1,2,4-triazol-3-yl)methyl]-5,7-dioxo-2,3,5,7,11,11a-hexahydro[1,3]oxazolo[3,2-a]pyrido[1,2-d]pyrazine-8-carboxamide]"
10,10 to 30,"C[C@H]1CO[C@@H]2Cn3cc(C(=O)NCc4ccccn4)c(=O)c(O)c3C(=O)N12 [Compound 1.1.15, (3S,11aR)-6-hydroxy-3-methyl-N-(pyridyl-2-ylmethyl)-5,7-dioxo-2,3,5,7,11,11a-hexahydro[1,3]oxazolo[3,2-a]pyrido[1,2-d]pyrazine-8-carboxamide]"
11,10 to 30,"C[C@H]1CO[C@@H]2Cn3cc(C(=O)NCc4ccc(Cl)nc4)c(=O)c(O)c3C(=O)N12 [Compound 1.1.18, (3S,11aR)-6-hydroxy-N-[(6-chloropyridin-3-yl)methyl]-3-methyl-5,7-dioxo-2,3,5,7,11,11a-hexahydro[1,3]oxazolo[3,2-a]pyrido[1,2-d]pyrazine-8-carboxamide]"
12,> 30,"C[C@H]1CO[C@@H]2Cn3cc(C(=O)NCc4c(F)ccnc4F)c(=O)c(O)c3C(=O)N12 [Compound 1.1.21, (3S,11aR)-6-hydroxy-N-[(2,4-difluoropyridin-3-yl)methyl]-3-methyl-5,7-dioxo-2,3,5,7,11,11a-hexahydro[1,3]oxazolo[3,2-a]pyrido[1,2-d]pyrazine-8-carboxamide]"
13,10 to 30,"Cc1nccc(CNC(=O)c2cn3c(c(O)c2=O)C(=O)N2[C@@H](C)CO[C@@H]2C3)n1 [Compound 1.1.26, (3S,11aR)-6-hydroxy-3-methyl-N-[(2-methylpyrimidin-4-yl)methyl]-5,7-dioxo-2,3,5,7,11,11a-hexahydro[1,3]oxazolo[3,2-a]pyrido[1,2-d]pyrazine-8-carboxamide]"
14,> 30,"C[C@H]1CO[C@@H]2Cn3cc(C(=O)NCc4cnccn4)c(=O)c(O)c3C(=O)N12 [Compound 1.1.27, (3S,11aR)-6-hydroxy-3-methyl-N-(pyrazin-2-ylmethyl)-5,7-dioxo-2,3,5,7,11,11a-hexahydro[1,3]oxazolo[3,2-a]pyrido[1,2-d]pyrazine-8-carboxamide]"
15,> 30,"C[C@H]1CO[C@@H]2Cn3cc(C(=O)NCc4cn5cc(Cl)sc5n4)c(=O)c(O)c3C(=O)N12 [Compound 1.1.28, (3S,11aR)-6-hydroxy-3-methyl-N-[(2-chloroimidazo[2,1-b][1,3]thiazol-6-yl)methyl]-5,7-dioxo-2,3,5,7,11,11a-hexahydro[1,3]oxazolo[3,2-a]pyrido[1,2-d]pyrazine-8-carboxamide]"
16,> 30,"C[C@H]1CO[C@@H]2Cn3cc(C(=O)NCc4cn5ncsc5n4)c(=O)c(O)c3C(=O)N12 [Compound 1.1.29, (3S,11aR)-6-hydroxy-N-(imidazo[2,1-b][1,3,4]thiadiazol-6-ylmethyl)-3-methyl-5,7-dioxo-2,3,5,7,11,11a-hexahydro[1,3]oxazolo[3,2-a]pyrido[1,2-d]pyrazine-8-carboxamide]"
17,> 30,"Cc1nn2cc(CNC(=O)c3cn4c(c(O)c3=O)C(=O)N3[C@@H](C)CO[C@@H]3C4)nc2s1 [Compound 1.1.30, (3S,11aR)-6-hydroxy-3-methyl-N-[(2-methylimidazo[2,1-b][1,3,4]thiadiazol-6-yl)methyl]-5,7-dioxo-2,3,5,7,11,11a-hexahydro[1,3]oxazolo[3,2-a]pyrido[1,2-d]pyrazine-8-carboxamide]"
18,2 to 10,"C[C@H]1CO[C@@H]2Cn3cc(C(=O)NCc4ccc5sccc5c4)c(=O)c(O)c3C(=O)N12 [Compound 1.1.31, (3S,11aR)-N-(1-benzothien-5-ylmethyl)-6-hydroxy-3-methyl-5,7-dioxo-2,3,5,7,11,11a-hexahydro[1,3]oxazolo[3,2-a]pyrido[1,2-d]pyrazine-8-carboxamide]"
19,2 to 10,"C[C@H]1CO[C@@H]2Cn3cc(C(=O)NCc4cc5ccccc5o4)c(=O)c(O)c3C(=O)N12 [Compound 1.1.32, (3S,11aR)-N-(1-benzofuran-2-ylmethyl)-6-hydroxy-3-methyl-5,7-dioxo-2,3,5,7,11,11a-hexahydro[1,3]oxazolo[3,2-a]pyrido[1,2-d]pyrazine-8-carboxamide]"
